Measurements taken from PMC5889090 (Journal of medicinal chemistry, 2017).
Like-named read-outs stand apart in the source and are kept apart here.

Tests used:
[1] = tested on: zebrafish neuromast hair cells; assay: Zebrafish neuromast hair cell protection assay; details: for protective activity (in words) / EC50: 200 μM neomycin; for eudismic ratio (ER): HC50 of the less active versus the more active enantiomer
[2] = target: hERG ion channel (Homo sapiens, UniProt Q12809); assay: cell-based
[3] = tested on: E. coli ATCC25922; assay: Interference with neomycin MIC/MBC; type: cell-based
[4] = tested on: five strains of P. aeruginosa; assay: Interference with aminoglycoside MIC; type: cell-based
[5] = tested on: M. tuberculosis; assay: Interference with amikacin MIC; type: cell-based
[6] = Aqueous solubility; type: physicochemical
[7] = Preliminary i.v. toxicity and plasma half-life in rats; type: in vivo, rat
[8] = Air oxidation stability; type: physicochemical; details: oxidation to inactive, highly fluorescent byproduct
[9] = tested on: CYP; assay: CYP stability / inhibition
[10] = Early / in vitro ADME profiling
[11] = In vitro toxicity against HepG2 cell line; details: human
[12] = tested on: Sprague-Dawley rats; assay: Rat ABR assay, kanamycin-induced hearing loss; details: kanamycin 500 mg/kg/day s.c. 14 days + compound 25 mg/kg/day i.p.
[13] = read-out: HC50, Tables 7, 8 and text, 50% hair cell protection

Sequence of hERG ion channel (Q12809 whole entry): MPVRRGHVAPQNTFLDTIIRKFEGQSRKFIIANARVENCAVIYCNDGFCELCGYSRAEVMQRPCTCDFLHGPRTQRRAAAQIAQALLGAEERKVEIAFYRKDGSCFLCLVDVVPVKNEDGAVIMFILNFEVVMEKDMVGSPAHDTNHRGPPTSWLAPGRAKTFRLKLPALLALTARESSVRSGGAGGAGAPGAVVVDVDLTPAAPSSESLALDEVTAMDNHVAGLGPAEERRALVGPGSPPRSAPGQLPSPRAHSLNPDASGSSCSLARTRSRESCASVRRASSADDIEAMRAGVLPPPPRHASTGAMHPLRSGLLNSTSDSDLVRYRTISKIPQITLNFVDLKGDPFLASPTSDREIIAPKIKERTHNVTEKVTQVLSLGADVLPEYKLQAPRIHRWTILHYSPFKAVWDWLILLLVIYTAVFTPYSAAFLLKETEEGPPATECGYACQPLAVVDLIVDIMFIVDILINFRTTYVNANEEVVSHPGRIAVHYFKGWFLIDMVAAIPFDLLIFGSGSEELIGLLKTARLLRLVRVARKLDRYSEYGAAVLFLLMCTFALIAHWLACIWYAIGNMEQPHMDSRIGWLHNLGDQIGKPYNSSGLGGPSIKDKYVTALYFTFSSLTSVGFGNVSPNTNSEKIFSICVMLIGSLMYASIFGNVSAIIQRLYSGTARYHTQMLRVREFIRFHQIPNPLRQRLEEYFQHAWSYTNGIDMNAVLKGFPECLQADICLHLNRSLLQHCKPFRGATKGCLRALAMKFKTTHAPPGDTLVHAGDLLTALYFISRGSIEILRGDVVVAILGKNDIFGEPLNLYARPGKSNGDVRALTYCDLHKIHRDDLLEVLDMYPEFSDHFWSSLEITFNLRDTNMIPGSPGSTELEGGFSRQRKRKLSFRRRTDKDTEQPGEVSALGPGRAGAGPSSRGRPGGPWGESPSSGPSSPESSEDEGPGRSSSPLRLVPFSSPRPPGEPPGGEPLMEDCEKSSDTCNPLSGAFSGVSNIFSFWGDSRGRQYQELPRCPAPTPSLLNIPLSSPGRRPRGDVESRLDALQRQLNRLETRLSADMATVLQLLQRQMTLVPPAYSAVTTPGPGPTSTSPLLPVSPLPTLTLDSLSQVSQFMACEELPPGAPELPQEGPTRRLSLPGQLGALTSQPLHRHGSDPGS

CCN1CCc2c(sc(NC(=O)Nc3cscc3C(=O)OC)c2C(N)=O)C1 [compound 15]
protective activity (in words) [1]: inactive

NC(=O)c1c(NC(=O)Nc2ccc(Cl)cc2)sc2c1CCN(CC1CC1)C2 [compound 53]
IC50 [2]: 2670 nM

CCN1CCc2c(sc(NC(=O)NCCN3CCOCC3)c2C(N)=O)C1 [compound 13]
protective activity (in words) [1]: inactive

CCN1CCc2c(sc(NC(=O)Nc3ccc(Cl)cc3)c2C(=O)c2nnco2)C1.Cl [compound 22]
protective activity (in words) [1]: inactive

(−)-2-[3-(4-Chlorophenyl)ureido]-9-methyl-5,6,7,8-tetrahydro-4H-5,8-epiminocyclohepta[b]thiophene-3-carboxamide [compound 89]
protective activity (in words) [1]: significantly reduced activity | EC50 [1, 13]: 2250 nM

CC(C)(C)OC(=O)CCCN1CCc2c(sc(NC(=O)Nc3ccc(Cl)cc3)c2C(N)=O)C1 [compound 62]
IC50 [2]: 3840 nM

CCN1CCc2c(sc(NC(=O)[C@@H]3CCCN3)c2C(N)=O)C1 [compound 30]
protective activity (in words) [1]: no protective activity

CCN1CCc2c(ccc(NC(=O)Nc3ccc(Cl)cc3)c2C(N)=O)C1 [compound 38]
protective activity (in words) [1]: no potency

(+)-2-[3-(4-Chlorophenyl)ureido]-9-methyl-5,6,7,8-tetrahydro-4H-5,8-epiminocyclohepta[b]thiophene-3-carboxamide [compound 90]
interference with neomycin minimal inhibitory concentration (MIC) [3]: no interference | interference in MIC for tobramycin, amikacin, kanamycin and neomycin [4]: no interference | interference in amikacin MIC [5]: no interference | EC50 [1, 13]: 120 nM

CCN1CCc2c(sc(NC(=O)NCc3cccc(Cl)c3)c2C(N)=O)C1.Cl [compound 11]
protective activity (in words) [1]: inactive

CCN1CCc2c(sc(NC(=O)C3(c4ccc(Cl)cc4)CC3)c2C(N)=O)C1.Cl [compound 33]
protective activity (in words) [1]: no protective activity

CCN1CCc2c(sc(NC(=O)Nc3ccc(Cl)cc3)c2C(=O)O)C1.O=C(O)C(F)(F)F [compound 16]
protective activity (in words) [1]: greatly reduces the activity

CN1[C@@H]2CC[C@H]1c1sc(NC(=O)Nc3ccc(Cl)cc3)c(C(N)=O)c1C2.Cl [compound 92]
protective activity (in words) [1]: significantly reduced activity | eudismic ratio (ER) [1]: 26.7

CCN1CCc2c(sc(NC(=O)Nc3ccc(Cl)cc3)c2C#N)C1.Cl [compound 19]
protective activity (in words) [1]: greatly reduces the activity

CCN1CCc2c(sc(NC(=O)Nc3ccc(Cl)cc3)c2C(=O)N2CCOCC2)C1.Cl [compound 20]
protective activity (in words) [1]: greatly reduces the activity

CCN1CCc2c(sc(NC(=O)c3ccccc3)c2C(N)=O)C1.Cl [compound 32]
protective activity (in words) [1]: no protective activity

CCN1CCc2c(sc(NC(=O)Nc3ccc(Cl)cc3)c2C(N)=O)C1.Cl [compound 1, 2-[3-(4-Chlorophenyl)ureido]-6-ethyl-4,5,6,7-tetrahydrothieno[2,3-c]pyridine-3-carboxamide]
aqueous solubility (in words) [6]: adequate | interference with neomycin minimal bactericidal concentration (MBC) [3]: no interference | interference with neomycin minimal inhibitory concentration (MIC) [3]: no interference | half-life ([7]; rat, plasma, iv, 25 mg/kg): 1.7 h | toxicity i.v. ([7]; rats, i.v., doses up to 25 mg/kg): non-toxic | air oxidation [8]: gradually undergo partial air oxidation | CYP stability or inhibition [9]: no issues | clearance profile (in words) ([10]; early ADME characterization): acceptable | membrane permeability (in words) ([10]; early ADME characterization): adequate | plasma protein binding (in words) ([10]; early ADME characterization): reasonable | IC50 [11]: > 300000 nM | protection from kanamycin-induced hearing loss (ABR) ([12]; 8 and 16 kHz): completely prevented | protection from kanamycin-induced hearing loss (ABR) ([12]; 32 kHz): mostly resolved

CCN1CCc2c(sc(NC(=O)Nc3ccc(Cl)cc3)c2C(=O)OC)C1.Cl [compound 17]
protective activity (in words) [1]: greatly reduces the activity

CCN1CCc2c(sc(NC(=O)NCC3CCCO3)c2C(N)=O)C1 (stereo not drawn) [compound 12]
protective activity (in words) [1]: inactive

C[N+]1(CC2CCCCC2)CCc2c(sc(NC(=O)Nc3ccc(Cl)cc3)c2C(N)=O)C1 (stereo not drawn) [compound 76]
IC50 [2]: > 30000 nM

CCN1CCc2c(sc(NC(=O)Nc3ccc(Cl)cc3)c2C(=O)c2nc(C)no2)C1.Cl [compound 21]
protective activity (in words) [1]: inactive

NC(=O)c1c(NC(=O)Nc2ccc(Cl)cc2)sc2c1CCN(CC1CCC1)C2 [compound 54]
IC50 [2]: 730 nM

2-amino-4,5,6,7-tetrahydrothieno[2,3-c]pyridine-3-carboxamide [compound 28]
protective activity (in words) [1]: inactive

CCN1CCc2c(sc(NC(=O)CN3CCCCC3)c2C(N)=O)C1 [compound 27]
protective activity (in words) [1]: no protective activity

CC(C)C[N+]1(C)CCc2c(sc(NC(=O)Nc3ccc(Cl)cc3)c2C(N)=O)C1 (stereo not drawn) [compound 71]
IC50 [2]: 9750 nM

CC(C)(C)OC(=O)CN1CCc2c(sc(NC(=O)Nc3ccc(Cl)cc3)c2C(N)=O)C1 [compound 60]
protective activity (in words) [1]: completely suppressed

CCN1CCc2c(sc(NC(=O)Nc3ccc(Cl)cc3)c2C(=O)NC)C1.Cl [compound 18]
protective activity (in words) [1]: greatly reduces the activity

CCN1CCc2c(sc(NC=O)c2C(N)=O)C1.Cl [compound 29]
protective activity (in words) [1]: no protective activity

Cl.NC(=O)c1c(NC(=O)Nc2ccc(Cl)cc2)sc2c1C[C@H]1CC[C@@H]2N1 [compound 95]
protective activity (in words) [1]: significantly reduced activity | eudismic ratio (ER) [1]: 14.7

CC(C)(C)OC(=O)N1CCc2c(sc(NC(=O)Nc3ccc(Cl)cc3)c2C(N)=O)C1 [compound 59]
protective activity (in words) [1]: completely suppressed

CCN1CCc2c(sc(NC(=O)C3(C(=O)Nc4ccc(Cl)cc4)CC3)c2C(N)=O)C1 [compound 31]
protective activity (in words) [1]: lack of potency

(+/−)-2-[3-(4-Chlorophenyl)ureido]-9-methyl-5,6,7,8-tetrahydro-4H-5,8-epiminocyclohepta[b]thiophene-3-carboxamide [compound 88]
EC50 [1, 13]: 360 nM

CC1(C)Cc2c(sc(NC(=O)Nc3ccc(Cl)cc3)c2C(N)=O)C(C)(C)N1.Cl [compound 87]
air oxidation [8]: resistant to the oxidation pathway | CYP stability or inhibition [9]: no issues | metabolic stability ([10]; in vitro ADME profiling): excellent | IC50 [11]: > 300000 nM

NC(=O)c1c(NC(=O)Nc2ccc(Cl)cc2)sc2c1[C@@H]1CC[C@H](C2)N1 [compound 99]
EC50 ([1]; Danio rerio, read-out: HC50, text): 33 nM

Cl.NC(=O)c1c(NC(=O)Nc2ccc(Cl)cc2)sc2c1[C@H]1CC[C@@H](C2)N1 [compound 98]
protective activity (in words) [1]: significantly reduced activity

CCN1CCc2c(sc(NC(=O)Nc3ccccc3)c2C(N)=O)C1.Cl [compound 14]
protective activity (in words) [1]: inactive
